Data on one compound can be found in ChEMBL document CHEMBL3886358, “Quinolyl-containing hydroxamic acid compound and preparation method thereof, and pharmaceutical composition containing this compound and use thereof” (2015).

Structures are written as SMILES.

Type in all cases: cell-based
Assay [1] has as its target Vascular endothelial growth factor receptor 2 (Homo sapiens, UniProt P35968). The assay is described as follows: (§1) Sci. USA 1988, 85(23), 9312). Specific steps were as follows: The compound of the present invention was dissolved in dimethyl sulfoxide (DMSO) to make a stock solution of 2 mM, then the stock solution was diluted with DMSO following a 7 half-log series to concentrations ranging from 2 uM to 600 pM.

The target in assay [2] is Proto-oncogene tyrosine-protein kinase Src (Homo sapiens, UniProt P12931). Described as §1.
Chain of Proto-oncogene tyrosine-protein kinase Src (P12931 2-536 limits assumed): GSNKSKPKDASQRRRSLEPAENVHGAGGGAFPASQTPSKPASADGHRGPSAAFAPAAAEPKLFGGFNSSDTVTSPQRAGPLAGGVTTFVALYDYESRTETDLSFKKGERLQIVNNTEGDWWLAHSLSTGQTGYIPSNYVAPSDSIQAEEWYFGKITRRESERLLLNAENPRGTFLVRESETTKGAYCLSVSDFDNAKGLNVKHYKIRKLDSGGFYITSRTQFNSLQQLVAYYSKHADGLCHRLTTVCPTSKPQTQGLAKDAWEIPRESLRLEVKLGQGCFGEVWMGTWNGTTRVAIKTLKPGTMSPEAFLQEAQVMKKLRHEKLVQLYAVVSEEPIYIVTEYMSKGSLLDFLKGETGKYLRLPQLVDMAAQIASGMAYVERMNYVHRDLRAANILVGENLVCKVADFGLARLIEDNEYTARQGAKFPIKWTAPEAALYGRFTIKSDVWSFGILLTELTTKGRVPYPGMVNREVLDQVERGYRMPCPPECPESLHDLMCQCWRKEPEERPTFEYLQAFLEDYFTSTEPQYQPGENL
Assay [3] concerns the target T1, Tyrosine-protein kinase receptor UFO (Homo sapiens, UniProt P30530).
T1 sequence (P30530 whole entry): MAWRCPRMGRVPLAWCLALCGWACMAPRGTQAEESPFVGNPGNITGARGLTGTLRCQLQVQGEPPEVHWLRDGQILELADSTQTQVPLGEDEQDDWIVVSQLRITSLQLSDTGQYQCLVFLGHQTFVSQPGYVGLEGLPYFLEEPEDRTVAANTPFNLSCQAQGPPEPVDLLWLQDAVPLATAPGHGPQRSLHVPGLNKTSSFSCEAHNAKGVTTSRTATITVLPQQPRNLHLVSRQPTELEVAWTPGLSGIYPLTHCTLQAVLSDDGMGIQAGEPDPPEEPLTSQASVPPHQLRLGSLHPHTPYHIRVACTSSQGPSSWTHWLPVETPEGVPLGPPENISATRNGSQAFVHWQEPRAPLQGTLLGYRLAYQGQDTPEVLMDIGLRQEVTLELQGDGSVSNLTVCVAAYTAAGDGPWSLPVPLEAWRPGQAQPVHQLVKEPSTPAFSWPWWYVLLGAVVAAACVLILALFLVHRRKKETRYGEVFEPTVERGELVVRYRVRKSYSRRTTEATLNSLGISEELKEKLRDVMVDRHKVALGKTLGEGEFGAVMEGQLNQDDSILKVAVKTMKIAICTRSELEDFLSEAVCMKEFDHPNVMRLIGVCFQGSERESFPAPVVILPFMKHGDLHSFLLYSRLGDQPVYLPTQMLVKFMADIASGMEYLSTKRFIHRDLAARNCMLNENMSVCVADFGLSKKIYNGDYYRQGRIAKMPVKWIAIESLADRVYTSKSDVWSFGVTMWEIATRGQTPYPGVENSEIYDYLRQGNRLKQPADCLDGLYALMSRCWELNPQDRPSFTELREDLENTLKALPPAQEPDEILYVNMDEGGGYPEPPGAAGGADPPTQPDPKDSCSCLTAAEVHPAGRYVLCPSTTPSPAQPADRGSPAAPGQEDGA
The description is as §1.

Assay [4] concerns the target ALK tyrosine kinase receptor (Homo sapiens, UniProt Q9UM73). The description is as §1.
Assay [5] deals with Platelet-derived growth factor receptor beta (Homo sapiens, UniProt P09619). The description is as §1.
Chain of Platelet-derived growth factor receptor beta (P09619 whole entry): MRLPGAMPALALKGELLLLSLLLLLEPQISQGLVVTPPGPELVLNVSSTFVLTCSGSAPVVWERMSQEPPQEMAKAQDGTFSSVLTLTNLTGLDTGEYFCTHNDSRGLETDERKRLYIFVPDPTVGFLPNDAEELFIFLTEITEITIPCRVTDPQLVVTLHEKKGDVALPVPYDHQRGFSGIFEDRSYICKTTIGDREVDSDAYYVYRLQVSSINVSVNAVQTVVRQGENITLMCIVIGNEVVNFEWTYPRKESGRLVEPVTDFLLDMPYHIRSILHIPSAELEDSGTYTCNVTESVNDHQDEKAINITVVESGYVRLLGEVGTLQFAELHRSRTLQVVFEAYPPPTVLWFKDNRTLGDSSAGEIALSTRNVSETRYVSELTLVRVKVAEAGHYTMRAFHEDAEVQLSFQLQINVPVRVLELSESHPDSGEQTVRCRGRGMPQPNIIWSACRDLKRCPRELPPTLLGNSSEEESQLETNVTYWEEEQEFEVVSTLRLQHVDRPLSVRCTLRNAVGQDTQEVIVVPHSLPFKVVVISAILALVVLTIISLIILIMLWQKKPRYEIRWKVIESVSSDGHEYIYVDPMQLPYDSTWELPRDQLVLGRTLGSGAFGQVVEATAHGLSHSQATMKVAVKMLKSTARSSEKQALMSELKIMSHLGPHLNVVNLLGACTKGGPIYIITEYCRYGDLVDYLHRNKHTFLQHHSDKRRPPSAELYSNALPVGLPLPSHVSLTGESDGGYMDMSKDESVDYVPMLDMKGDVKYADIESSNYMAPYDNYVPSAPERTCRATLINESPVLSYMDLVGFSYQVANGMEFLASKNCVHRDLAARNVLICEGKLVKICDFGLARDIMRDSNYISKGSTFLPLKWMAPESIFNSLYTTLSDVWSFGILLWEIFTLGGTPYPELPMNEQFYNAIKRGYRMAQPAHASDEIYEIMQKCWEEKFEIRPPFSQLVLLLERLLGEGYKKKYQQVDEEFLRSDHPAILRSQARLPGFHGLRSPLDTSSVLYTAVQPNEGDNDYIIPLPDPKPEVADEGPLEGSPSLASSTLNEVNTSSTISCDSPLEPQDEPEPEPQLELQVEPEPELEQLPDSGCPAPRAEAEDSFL

Chain of ALK tyrosine kinase receptor (Q9UM73 whole entry): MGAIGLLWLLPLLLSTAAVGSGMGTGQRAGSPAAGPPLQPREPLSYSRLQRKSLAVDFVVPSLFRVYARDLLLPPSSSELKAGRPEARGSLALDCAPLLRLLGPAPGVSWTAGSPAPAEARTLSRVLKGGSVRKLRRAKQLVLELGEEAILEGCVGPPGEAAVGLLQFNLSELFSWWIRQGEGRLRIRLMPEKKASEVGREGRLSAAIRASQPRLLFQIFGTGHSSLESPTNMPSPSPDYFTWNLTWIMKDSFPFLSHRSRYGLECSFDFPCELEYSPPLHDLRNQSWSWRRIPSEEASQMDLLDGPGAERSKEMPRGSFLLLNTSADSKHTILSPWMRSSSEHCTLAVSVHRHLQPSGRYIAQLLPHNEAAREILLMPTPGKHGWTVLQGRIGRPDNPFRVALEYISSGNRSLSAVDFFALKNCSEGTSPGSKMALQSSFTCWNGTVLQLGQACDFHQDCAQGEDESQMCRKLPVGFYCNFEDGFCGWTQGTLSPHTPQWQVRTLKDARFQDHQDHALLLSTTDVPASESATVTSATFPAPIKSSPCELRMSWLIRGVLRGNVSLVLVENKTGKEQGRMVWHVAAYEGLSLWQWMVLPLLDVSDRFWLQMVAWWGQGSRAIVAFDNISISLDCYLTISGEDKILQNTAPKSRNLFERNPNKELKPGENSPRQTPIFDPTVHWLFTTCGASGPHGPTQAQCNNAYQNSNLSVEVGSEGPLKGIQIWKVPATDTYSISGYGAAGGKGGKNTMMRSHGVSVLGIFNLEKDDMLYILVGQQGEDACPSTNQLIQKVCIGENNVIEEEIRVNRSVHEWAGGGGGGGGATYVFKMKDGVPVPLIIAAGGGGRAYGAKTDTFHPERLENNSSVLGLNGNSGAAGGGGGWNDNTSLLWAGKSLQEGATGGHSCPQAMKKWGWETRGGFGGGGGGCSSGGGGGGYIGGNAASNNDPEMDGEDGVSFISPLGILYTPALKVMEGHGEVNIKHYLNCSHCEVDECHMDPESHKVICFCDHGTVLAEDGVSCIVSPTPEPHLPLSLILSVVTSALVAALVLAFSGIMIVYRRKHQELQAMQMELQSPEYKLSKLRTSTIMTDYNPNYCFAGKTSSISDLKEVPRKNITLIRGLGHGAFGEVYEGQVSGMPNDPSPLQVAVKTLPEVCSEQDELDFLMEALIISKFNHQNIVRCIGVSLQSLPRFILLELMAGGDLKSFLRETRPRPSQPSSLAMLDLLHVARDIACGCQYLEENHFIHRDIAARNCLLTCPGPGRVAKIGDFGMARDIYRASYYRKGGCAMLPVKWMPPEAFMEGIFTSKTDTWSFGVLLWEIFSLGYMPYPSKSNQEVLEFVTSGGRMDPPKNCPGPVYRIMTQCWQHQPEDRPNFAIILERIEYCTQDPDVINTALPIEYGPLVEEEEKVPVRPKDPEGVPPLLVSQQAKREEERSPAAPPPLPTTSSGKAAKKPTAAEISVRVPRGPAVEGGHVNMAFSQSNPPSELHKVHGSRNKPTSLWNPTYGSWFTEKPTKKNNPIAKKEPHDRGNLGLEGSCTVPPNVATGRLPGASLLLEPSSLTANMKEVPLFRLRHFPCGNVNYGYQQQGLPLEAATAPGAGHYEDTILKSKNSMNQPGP
Chain of Vascular endothelial growth factor receptor 2 (P35968 whole entry): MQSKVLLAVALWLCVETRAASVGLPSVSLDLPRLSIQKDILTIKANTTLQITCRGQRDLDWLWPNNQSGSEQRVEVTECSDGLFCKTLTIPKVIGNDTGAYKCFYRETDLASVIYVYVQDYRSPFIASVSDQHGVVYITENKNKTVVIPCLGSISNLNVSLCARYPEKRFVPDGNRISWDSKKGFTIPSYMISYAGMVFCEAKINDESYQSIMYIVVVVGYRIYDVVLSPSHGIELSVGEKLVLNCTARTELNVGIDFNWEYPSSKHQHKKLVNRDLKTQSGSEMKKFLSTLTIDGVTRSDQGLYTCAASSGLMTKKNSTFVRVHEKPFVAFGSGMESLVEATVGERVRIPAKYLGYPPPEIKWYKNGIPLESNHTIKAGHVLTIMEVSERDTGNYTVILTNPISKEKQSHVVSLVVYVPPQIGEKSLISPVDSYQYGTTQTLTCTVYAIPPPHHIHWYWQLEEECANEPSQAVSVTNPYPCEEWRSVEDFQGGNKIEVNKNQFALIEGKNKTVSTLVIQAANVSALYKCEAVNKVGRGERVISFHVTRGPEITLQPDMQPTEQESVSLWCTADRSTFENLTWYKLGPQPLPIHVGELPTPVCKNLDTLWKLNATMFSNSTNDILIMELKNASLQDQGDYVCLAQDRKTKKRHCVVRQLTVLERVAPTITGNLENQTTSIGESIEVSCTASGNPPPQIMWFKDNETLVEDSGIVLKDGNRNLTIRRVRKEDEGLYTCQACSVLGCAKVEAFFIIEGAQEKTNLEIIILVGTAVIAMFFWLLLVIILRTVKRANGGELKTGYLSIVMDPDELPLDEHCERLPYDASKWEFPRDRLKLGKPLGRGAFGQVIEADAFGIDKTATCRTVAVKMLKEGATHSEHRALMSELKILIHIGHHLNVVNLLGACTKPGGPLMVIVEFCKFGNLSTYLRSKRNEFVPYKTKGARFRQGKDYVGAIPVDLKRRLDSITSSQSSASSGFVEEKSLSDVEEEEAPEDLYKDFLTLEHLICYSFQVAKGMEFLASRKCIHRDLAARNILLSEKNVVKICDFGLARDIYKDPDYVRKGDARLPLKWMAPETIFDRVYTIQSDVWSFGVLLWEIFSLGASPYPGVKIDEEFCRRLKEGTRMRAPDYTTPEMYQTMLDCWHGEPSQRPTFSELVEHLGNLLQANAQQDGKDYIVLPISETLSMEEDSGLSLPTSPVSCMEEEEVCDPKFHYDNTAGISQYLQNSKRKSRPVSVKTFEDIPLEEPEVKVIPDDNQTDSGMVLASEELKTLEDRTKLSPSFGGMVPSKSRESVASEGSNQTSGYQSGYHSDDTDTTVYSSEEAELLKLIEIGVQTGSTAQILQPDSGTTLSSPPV

As a reminder, the IC50 is the concentration that inhibits the measured activity by half. Consider `COc1cc2c(Oc3ccc(NC(=O)C4(C(=O)Nc5ccc(F)cc5)CC4)cc3F)ccnc2cc1OCCCC(=O)NO`, for which the concentration for half-maximal inhibition (IC50) was 12 nM in assay [1]; over 630 nM in assay [2]; 19 nM in assay [3]; over 630 nM in assay [4]; 172 nM in assay [5].
